Results published in BindingDB's records for doi:10.1016/j.bmcl.2008.08.095 (Sunesis Pharmaceuticals, 2008).

Biological target: Focal adhesion kinase 1 (Homo sapiens, UniProt Q05397)
Sequence (Q05397 whole entry): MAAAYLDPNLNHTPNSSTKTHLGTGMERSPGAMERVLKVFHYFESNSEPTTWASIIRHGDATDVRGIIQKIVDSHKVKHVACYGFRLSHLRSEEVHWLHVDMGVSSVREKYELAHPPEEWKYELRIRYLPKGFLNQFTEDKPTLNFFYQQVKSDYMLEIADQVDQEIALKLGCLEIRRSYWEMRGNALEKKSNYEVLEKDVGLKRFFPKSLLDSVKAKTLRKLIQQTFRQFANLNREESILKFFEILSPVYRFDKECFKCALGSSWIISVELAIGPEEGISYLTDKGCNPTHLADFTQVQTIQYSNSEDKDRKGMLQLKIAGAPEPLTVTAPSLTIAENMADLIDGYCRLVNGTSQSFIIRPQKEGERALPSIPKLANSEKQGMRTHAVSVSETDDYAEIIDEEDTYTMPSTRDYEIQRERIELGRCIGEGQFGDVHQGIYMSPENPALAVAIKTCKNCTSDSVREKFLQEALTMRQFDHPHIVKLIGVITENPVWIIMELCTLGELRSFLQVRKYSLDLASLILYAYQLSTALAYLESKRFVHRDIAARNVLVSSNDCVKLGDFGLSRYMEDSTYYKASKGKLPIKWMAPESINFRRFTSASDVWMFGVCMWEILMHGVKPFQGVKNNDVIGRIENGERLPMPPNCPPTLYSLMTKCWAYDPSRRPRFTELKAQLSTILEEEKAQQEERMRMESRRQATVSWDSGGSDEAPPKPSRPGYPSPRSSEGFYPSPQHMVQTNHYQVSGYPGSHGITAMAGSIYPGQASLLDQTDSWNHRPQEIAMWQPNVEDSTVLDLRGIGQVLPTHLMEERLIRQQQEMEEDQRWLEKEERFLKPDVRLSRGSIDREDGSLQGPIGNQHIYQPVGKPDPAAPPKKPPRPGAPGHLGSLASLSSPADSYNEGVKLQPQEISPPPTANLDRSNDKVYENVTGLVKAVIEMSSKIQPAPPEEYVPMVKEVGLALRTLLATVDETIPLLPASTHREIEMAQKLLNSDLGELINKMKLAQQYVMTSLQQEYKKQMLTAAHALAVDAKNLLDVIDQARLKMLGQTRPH

IC50 | Structure (SMILES)
7.46 µM | Cc1nn(-c2cc(Cl)cc(CCC(N)=O)c2)c2cc(N[C@@H](C)c3ccccc3)ncc12 [3-[3-chloro-5-(3-methyl-6-{[(1S)-1-phenylethyl]amino}-1H-pyrazolo[4,3-c]pyridin-1-yl)phenyl]propanamide]
6.28 µM | CC(=O)Nc1ccccc1-c1cc(Cl)cc(-n2nc(C)c3cnc(N[C@@H](C)c4ccccc4)cc32)c1 [N-{2-[3-chloro-5-(3-methyl-6-{[(1S)-1-phenylethyl]amino}-1H-pyrazolo[4,3-c]pyridin-1-yl)phenyl]phenyl}acetamide]
